The values that follow come from patent US12679832B2, “Compounds and their uses as CD38 inhibitors” (Nanjing Immunophage Biotech Co., Ltd., priority 2021, dated 2026).

Usually IC50 stands for the concentration that inhibits the measured activity by half.

For this assay, the target named is T1, hCD38 Enzyme (Homo sapiens, UniProt P28907).
T1 construct: purchased Sino Biological Inc 10818-H08H
T1 sequence (P28907 43-300 limits assumed): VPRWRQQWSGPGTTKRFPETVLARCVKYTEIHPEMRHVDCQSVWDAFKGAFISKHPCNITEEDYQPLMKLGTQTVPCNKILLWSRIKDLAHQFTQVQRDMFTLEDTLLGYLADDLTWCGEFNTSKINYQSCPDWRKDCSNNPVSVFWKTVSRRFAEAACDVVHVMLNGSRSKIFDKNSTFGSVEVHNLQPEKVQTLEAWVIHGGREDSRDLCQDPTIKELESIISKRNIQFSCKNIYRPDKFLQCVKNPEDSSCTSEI
Kind of assay: CD38 hydrolase enzymatic assay. The format is biochemical. The following applies: rhCD38, ε-NAD substrate, 25° C., point reading time 20 mins; read-out: hCD38 Enzyme inhibition IC50.
For `CO[C@H]1CC[C@H](NC(=O)c2nc(-n3ccnc3)cnc2N(C)C)CC1` [compound 46, 3-(dimethylamino)-6-(1H-imidazol-1-yl)-N-((1r,4r)-4-methoxycyclohexyl) pyrazine-2-carboxamide], the IC50 was 0.536 µM.

Take `CO[C@H]1CC[C@H](NC(=O)c2cc(-n3nccn3)cc3cc[nH]c23)CC1` [compound 55, N-((1r,4r)-4-methoxycyclohexyl)-5-(2H-1,2,3-triazol-2-yl)-1H-indole-7-carboxamide]: the IC50 is above 10 µM. On to `CO[C@H]1CC[C@H](NC(=O)c2ccnc(-n3cnc(C(F)(F)F)c3)n2)CC1` [compound 153, N-((1r,4r)-4-methoxycyclohexyl)-2-(4-(trifluoromethyl)-1H-imidazol-1-yl) pyrimidine-4-carboxamide], for which the IC50 was above 10 µM. The same measure for `CO[C@H]1CC[C@H](NC(=O)c2ccc(C)c(-n3ccnc3)n2)CC1` [compound 76, 6-(1H-imidazol-1-yl)-N-((1r,4r)-4-methoxycyclohexyl)-5-methylpicolinamide]: above 10 µM; for `CNc1cc(C(=O)N[C@H]2CC[C@H](OC)CC2)nc(-n2ccnc2)n1` [compound 24, 2-(1H-imidazol-1-yl)-N-((1r,4r)-4-methoxycyclohexyl)-6-(methylamino)pyrimidine-4-carboxamide]: 0.03 µM. `CO[C@H]1CC[C@H](NC(=O)c2ccnc(-n3cccn3)n2)CC1` [compound 100, N-((1r,4r)-4-methoxycyclohexyl)-2-(1H-pyrazol-1-yl)pyrimidine-4-carboxamide]: the IC50 amounted to 3.43 µM.

As for `CO[C@H]1CC[C@H](NC(=O)c2nc(-n3ccnc3)ncc2C(F)(F)F)CC1` [compound 161, 2-(1H-imidazol-1-yl)-N-((1r,4r)-4-methoxycyclohexyl)-5-(trifluoromethyl) pyrimidine-4-carboxamide], the IC50 stood at 0.831 µM. Consider `O=C(NC1CCCCC1)c1ccnc(-n2ccnc2)n1` [compound 72, N-cyclohexyl-2-(1H-imidazol-1-yl)pyrimidine-4-carboxamide], for which the IC50 is 0.016 µM. On to `O=C(NC1CCOCC1)c1cncc(-n2ccnc2)n1` [compound 32, 6-(1H-imidazol-1-yl)-N-(tetrahydro-2H-pyran-4-yl)pyrazine-2-carboxamide], for which the IC50 was 0.084 µM. On to `C[C@H]1CC[C@H](NC(=O)c2cc(N3CCCCC3)nc(-n3ccnc3)n2)CC1` [compound 147, 2-(1H-imidazol-1-yl)-N-((1r,4r)-4-methylcyclohexyl)-6-(piperidin-1-yl)pyrimidine-4-carboxamide], for which the IC50 is 0.07 µM. With `CO[C@H]1CC[C@H](NC(=O)c2cc(-c3ccncc3)nc(-n3ccnc3)n2)CC1` [compound 183, 2-(1H-imidazol-1-yl)-N-((1r,4r)-4-methoxycyclohexyl)-6-(pyridin-4-yl) pyrimidine-4-carboxamide], the IC50 turned out to be 0.028 µM.

Regarding `CO[C@H]1CC[C@H](NC(=O)c2nc(-c3cncs3)cnc2N)CC1` [compound 27, 3-amino-N-((1r,4r)-4-methoxycyclohexyl)-6-(thiazol-5-yl)pyrazine-2-carboxamide], the IC50 turned out to be 0.842 µM. On to `CNc1nc(C(=O)N[C@H]2CC[C@H](OC)CC2)cc(-n2ccnc2)n1` [compound 22, 6-(1H-imidazol-1-yl)-N-((1r,4r)-4-methoxycyclohexyl)-2-(methylamino)pyrimidine-4-carboxamide], for which the IC50 turned out to be 2.75 µM. For the compound `CC(C)NC(=O)c1cncc(-n2ccnc2)n1` [compound 31, 6-(1H-imidazol-1-yl)-N-isopropylpyrazine-2-carboxamide], the IC50 was found to be 0.394 µM. As to `O=C(O)COc1ncc(NC(=O)c2cc(C(F)(F)F)nc(-n3ccnc3)n2)cn1` [compound 194, 2-((5-(2-(1H-imidazol-1-yl)-6-(trifluoromethyl)pyrimidine-4-carboxamido)pyrimidin-2-yl)oxy) acetic acid], the IC50 was 0.03 µM. Regarding `CO[C@H]1CC[C@H](NC(=O)c2cc(-n3ccnc3)cc(C)n2)CC1` [compound 50, 4-(1H-imidazol-1-yl)-N-((1r,4r)-4-methoxycyclohexyl)-6-methylpicolinamide], the IC50 is above 10 µM. With `N#Cc1ccc(NC(=O)c2cc(C(F)(F)F)nc(-n3ccnc3)n2)cc1` [compound 165, N-(4-cyanophenyl)-2-(1H-imidazol-1-yl)-6-(trifluoromethyl) pyrimidine-4-carboxamide], the IC50 came out at 0.003 µM. For the compound `CO[C@H]1CC[C@H](NC(=O)c2cc(Cl)cc(-n3ccnc3)n2)CC1` [compound 51, 4-chloro-6-(1H-imidazol-1-yl)-N-((1r,4r)-4-methoxycyclohexyl) picolinamide], the IC50 came to 0.009 µM.

On to `CO[C@H]1CC[C@H](NC(=O)c2cc(O)cc(-n3ccnc3)n2)CC1` [compound 5, 4-hydroxy-6-(1H-imidazol-1-yl)-N-((1r,4r)-4-methoxycyclohexyl)picolinamide], for which the IC50 turned out to be 0.895 µM. For the compound `O=C(NC1CCNCC1)c1cncc(-n2ccnc2)n1` [compound 33, 6-(1H-imidazol-1-yl)-N-(piperidin-4-yl)pyrazine-2-carboxamide], the IC50 stood at 4.08 µM. The same measure for `CO[C@H]1CC[C@H](NC(=O)c2cc(-n3ccnc3)cc(-n3ccnc3)n2)CC1` [compound 1, 4,6-di (1H-imidazol-1-yl)-N-((1r,4r)-4-methoxycyclohexyl)picolinamide]: 0.029 µM; for `CC(=O)N1CCC(NC(=O)c2cncc(-n3ccnc3)n2)CC1` [compound 40, N-(1-acetylpiperidin-4-yl)-6-(1H-imidazol-1-yl)pyrazine-2-carboxamide]: 0.096 µM.

`CO[C@H]1CC[C@H](NC(=O)c2ccc(Cl)c(-n3ccnc3)n2)CC1` [compound 77, 5-chloro-6-(1H-imidazol-1-yl)-N-((1r,4r)-4-methoxycyclohexyl) picolinamide]: the IC50 came to 2.45 µM. As to `O=C(Nc1ccccc1Cl)c1ccnc(-n2ccnc2)n1` [compound 85, N-(2-chlorophenyl)-2-(1H-imidazol-1-yl)pyrimidine-4-carboxamide], the IC50 came out at 0.029 µM. In the case of `CO[C@H]1CC[C@H](NC(=O)c2cc(C(F)(F)F)cc(-n3ccnc3)n2)CC1` [compound 53, 6-(1H-imidazol-1-yl)-N-((1r,4r)-4-methoxycyclohexyl)-4-(trifluoromethyl) picolinamide], the IC50 is 0.036 µM. Consider `CO[C@H]1CC[C@H](NC(=O)c2cc(-c3ccnc(C(F)(F)F)c3)nc(-n3ccnc3)n2)CC1` [Compound 184], for which the IC50 is 0.028 µM. Regarding `CO[C@H]1CC[C@H](NC(=O)c2ccnc(-n3ccnc3C(F)(F)F)n2)CC1` [compound 154, N-((1r,4r)-4-methoxycyclohexyl)-2-(2-(trifluoromethyl)-1H-imidazol-1-yl) pyrimidine-4-carboxamide], the IC50 was above 10 µM. With `Cc1nccn1-c1cncc(C(=O)NC2CCCCC2)n1` [compound 80, N-cyclohexyl-6-(2-methyl-1H-imidazol-1-yl)pyrazine-2-carboxamide], the IC50 is above 10 µM. The same measure for `O=C(Nc1cncc(F)c1)c1cc(C(F)(F)F)nc(-n2ccnc2)n1` [compound 167, N-(5-fluoropyridin-3-yl)-2-(1H-imidazol-1-yl)-6-(trifluoromethyl) pyrimidine-4-carboxamide]: 0.004 µM; for `O=C(Nc1cccc(F)c1)c1cc(OC2CCC2)nc(-n2ccnc2)n1` [compound 121, 6-cyclobutoxy-N-(3-fluorophenyl)-2-(1H-imidazol-1-yl)pyrimidine-4-carboxamide]: 0.008 µM.
